pIC50: −log10 of the molar value.
Assays:
Experiment in all cases: biochemical
[1] = target: T1, Recombinant human MMP-2 (Homo sapiens, UniProt P08253); details: fluorogenic MCA-peptide substrate, pH 7.5, room temperature; read-out: MMP-2 IC50
T1 construct: made in house
T1 sequence (P08253 110-660): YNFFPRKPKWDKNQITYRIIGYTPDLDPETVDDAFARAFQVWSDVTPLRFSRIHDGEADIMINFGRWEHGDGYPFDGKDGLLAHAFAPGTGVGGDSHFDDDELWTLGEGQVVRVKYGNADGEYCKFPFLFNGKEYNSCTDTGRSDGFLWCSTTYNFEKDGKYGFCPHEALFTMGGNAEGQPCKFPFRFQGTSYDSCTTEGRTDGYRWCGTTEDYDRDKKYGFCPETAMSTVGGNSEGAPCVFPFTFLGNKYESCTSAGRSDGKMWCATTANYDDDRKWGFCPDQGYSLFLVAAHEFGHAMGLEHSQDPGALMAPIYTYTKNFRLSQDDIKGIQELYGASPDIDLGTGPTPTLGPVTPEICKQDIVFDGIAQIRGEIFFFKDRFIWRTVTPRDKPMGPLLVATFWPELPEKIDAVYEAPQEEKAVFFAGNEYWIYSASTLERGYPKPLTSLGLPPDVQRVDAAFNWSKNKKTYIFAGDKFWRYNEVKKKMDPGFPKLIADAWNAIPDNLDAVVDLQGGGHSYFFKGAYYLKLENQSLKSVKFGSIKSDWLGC
Description: (§1) Recombinant human MMP-1, MMP-2, MMP-9, MMP-13, and were used in this assay. These enzymes were prepared in the Assignee's es following usual laboratory procedures. Specifics for preparing and e enzymes can be found in the scientific literature describing these See, e.g., Enzyme Nomenclature (Academic Press, San Diego, Calif., d the citations therein).
The MMP-2 was obtained from MMP-2 expressing transfected cells provided by Dr. Gregory Goldberg of Washington University.
(§2) The enzyme substrate was a methoxycoumarin-containing polypeptide having the following sequence:
(§3) MCA-ProLeuGlyLeuDpaAlaArgNH2
(§4) Here, “MCA” is methoxycoumarin and “Dpa” is 3-(2,4-dinitrophenyl)-L-2,3-diaminopropionyl alanine.
(§5) These solutions were then compared to a control (which contained equal amount of DMSO/buffer solution, but no hydroxamate compound) using Microfluor™ White Plates (Dynatech, Chantilly, Va.). Specifically, The MMPs were activated with APMA or trypsin. […] The control likewise was incubated at room temperature in separate plates with the MMP and 4 uM of the MMP substrate. […] Inhibition was measured as a reduction in fluorescent intensity as a function of inhibitor concentration using a Perkin Elmer (Norwalk, Conn.) L550 plate reader. The IC50's were then calculated from these measurements.

[2] = target: T2, Recombinant human MMP-13 (Homo sapiens, UniProt P45452); details: fluorogenic MCA-peptide substrate, pH 7.5, room temperature; read-out: MMP-13 IC50
T2 construct: made in house; host or cells: baculovirus / insect cells
Description: as §1
The expressed proenzyme was first purified over a heparin agarose column, and then over a chelating zinc chloride column. The proenzyme was then activated by APMA for use in the assay.
as §2, §3, §4, §5

[3] = target: T3, Recombinant human MMP-1 (Homo sapiens, UniProt P03956); details: fluorogenic MCA-peptide substrate, pH 7.5, room temperature
T3 construct: made in house; host or cells: transfected HT-1080 cells
T3 sequence (P03956 100-469): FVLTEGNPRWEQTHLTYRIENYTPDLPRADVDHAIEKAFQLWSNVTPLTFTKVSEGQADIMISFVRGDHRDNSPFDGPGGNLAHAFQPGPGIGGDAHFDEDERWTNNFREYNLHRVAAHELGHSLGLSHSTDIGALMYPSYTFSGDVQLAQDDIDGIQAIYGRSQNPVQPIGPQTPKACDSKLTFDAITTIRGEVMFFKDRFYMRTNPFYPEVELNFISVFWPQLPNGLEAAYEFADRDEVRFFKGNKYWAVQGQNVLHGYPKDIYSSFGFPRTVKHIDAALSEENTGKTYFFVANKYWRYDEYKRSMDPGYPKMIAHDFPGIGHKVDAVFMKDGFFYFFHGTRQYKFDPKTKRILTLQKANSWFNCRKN
Description: as §1
The MMP-1 was obtained from MMP-1 expressing transfected HT-1080 cells provided by Dr. Harold Welgus of Washington University in St. Louis, Mo. The MMP-1 was activated using 4-aminophenylmercuric acetate (APMA), and then purified over a hydroxamic acid column.
as §2, §3, §4, §5

## Cc1ccc(C(=O)C2CCN(c3ccc(S(=O)(=O)C4(C(=O)NO)CCN(S(C)(=O)=O)CC4)cc3)CC2)cc1C [Example 164]
[1]
  pIC50: 6.03
[2]
  pIC50: 8.27
[3]
  pIC50: < 5.00

## O=C(c1ccc(CCC2CCCC2)cc1)C1CCN(c2ccc(S(=O)(=O)C3(C(=O)NO)CCOCC3)cc2)CC1 [Example 381]
[1]
  pIC50: 6.19
[2]
  pIC50: 8.46
[3]
  pIC50: < 5.00

## CC(C)Cc1ccc(C(=O)C2CCN(c3ccc(S(=O)(=O)C4(C(=O)NO)CCOCC4)cc3)CC2)cc1 [Example 377]
[1]
  pIC50: 6.44
[2]
  pIC50: 9.40
[3]
  pIC50: < 5.00

## CCN1CCC(C(=O)NO)(S(=O)(=O)c2ccc(N3CCC(C(=O)c4ccc(CCC(C)O)cc4)CC3)cc2)CC1 (centres unmarked) [Example 248]
[1]
  pIC50: 6.85
[2]
  pIC50: 9.22
[3]
  pIC50: < 5.00

## Cc1ccc(C2CCN(c3ccc(S(=O)(=O)C4(C(=O)NO)CCN(C5CC5)CC4)cc3)CC2)cc1 [Example 272]
[1]
  pIC50: 8.23
[2]
  pIC50: 8.89
[3]
  pIC50: < 5.00

## CCC(C)Cc1ccc(C(=O)C2CCN(c3ccc(S(=O)(=O)C4(C(=O)NO)CCOCC4)cc3)CC2)cc1 (centres unmarked) [Example 382]
[1]
  pIC50: 5.88
[2]
  pIC50: 9.52
[3]
  pIC50: < 5.00

## O=C(NO)C1(S(=O)(=O)c2ccc(N3CCC(Sc4nc5ccccc5s4)CC3)cc2)CCN(C2CC2)CC1 [Example 185]
[1]
  pIC50: 7.06
[2]
  pIC50: 8.29
[3]
  pIC50: < 5.00

## COCCN1CCC(C(=O)NO)(S(=O)(=O)c2ccc(N3CCC(C(=O)c4ccc(CN(C)C)s4)CC3)cc2)CC1 [Example 223]
[1]
  pIC50: 7.09
[2]
  pIC50: 8.60
[3]
  pIC50: < 5.00

## COCCN1CCC(C(=O)NO)(S(=O)(=O)c2ccc(N3CCC(C(=O)c4ccc(CCC5CCCC5)cc4)CC3)cc2)CC1 [Example 204]
[1]
  pIC50: 5.98
[2]
  pIC50: 9.70
[3]
  pIC50: < 5.00

## O=C(c1ccc(Cl)cc1)C1CCN(c2ccc(S(=O)(=O)C3(C(=O)NO)CCN(C4CC4)CC3)cc2)CC1 [Example 213]
[1]
  pIC50: 7.59
[2]
  pIC50: 9.30
[3]
  pIC50: < 5.00

## O=C(NO)C1(S(=O)(=O)c2ccc(N3CCC(c4ccc(Cl)cc4)CC3)cc2)CCN(CC2CC2)CC1 [Example 274]
[2]
  pIC50: 8.68
[3]
  pIC50: < 5.00

## COCCN1CCC(C(=O)NO)(S(=O)(=O)c2ccc(N3CCC(C(=O)c4cccc(C)c4)CC3)c(Cl)c2)CC1 [Example 277]
[1]
  pIC50: < 5.00
[2]
  pIC50: 6.56

## O=C(NO)C1(S(=O)(=O)c2ccc(N3CCC(c4ccc(F)cc4)CC3)cc2)CCN(C2CC2)CC1 [Example 259]
[1]
  pIC50: 9.22
[2]
  pIC50: 9.40

## COCCN1CCC(C(=O)NO)(S(=O)(=O)c2ccc(N3CCC(Sc4nccs4)CC3)cc2)CC1 [Example 256]
[1]
  pIC50: 7.45
[2]
  pIC50: 8.12

## O=C(Cc1cccs1)C1CCN(c2ccc(S(=O)(=O)C3(C(=O)NO)CCOCC3)cc2)CC1 [Example 387]
[1]
  pIC50: 6.46
[2]
  pIC50: 8.35

## CN(C)Cc1ccc(C(=O)C2CCN(c3ccc(S(=O)(=O)C4(C(=O)NO)CCOCC4)cc3)CC2)cc1 [Example 384]
[1]
  pIC50: 7.28
[2]
  pIC50: 8.54

## O=C(Cc1ccccc1)C1CCN(c2ccc(S(=O)(=O)C3(C(=O)NO)CCOCC3)cc2)CC1 [Example 386]
[1]
  pIC50: 5.72
[2]
  pIC50: 7.82

## C=CCN1CCC(C(=O)NO)(S(=O)(=O)c2ccc(N3CCC(C(=O)c4ccc(CCC)cc4)CC3)cc2)CC1 [Example 159]
[1]
  pIC50: 7.49
[2]
  pIC50: 9.30

## O=C(C1CCN(c2ccc(S(=O)(=O)C3(C(=O)NO)CCOCC3)cc2)CC1)N1CCN(c2ccc(C(F)(F)F)cc2)CC1 [Example 33]
[3]
  pIC50: 7.17

## COCCN1CCC(C(=O)NO)(S(=O)(=O)c2ccc(N3CCC(C(=O)c4ccc(CN5CCOCC5)cc4)CC3)cc2)CC1 [Example 240]
[1]
  pIC50: 7.07
[2]
  pIC50: 8.55

## O=C(NO)C1(S(=O)(=O)c2ccc(N3CCC(SCc4ccc(OC(F)(F)F)cc4)CC3)cc2)CCN(C2CC2)CC1 [Example 143]
[1]
  pIC50: 7.00
[2]
  pIC50: 8.68

## C#CCN1CCC(C(=O)NO)(S(=O)(=O)c2ccc(N3CCC(C(=O)c4ccc(NC)cc4)CC3)cc2)CC1 [Example 173]
[1]
  pIC50: 6.93
[2]
  pIC50: 9.05

## COCCN1CCC(C(=O)NO)(S(=O)(=O)c2ccc(N3CCC(C(=O)c4ccc(C)cc4)CC3)c(Cl)c2)CC1 [Example 275]
[1]
  pIC50: 5.17
[2]
  pIC50: 6.74

## COCCN1CCC(C(=O)NO)(S(=O)(=O)c2ccc(N3CCC(C(=O)c4cccc(OC)c4)CC3)c(Cl)c2)CC1 [Example 276]
[1]
  pIC50: 5.56
[2]
  pIC50: 6.90

## COCCN1CCC(C(=O)NO)(S(=O)(=O)c2ccc(N3CCC(C(=O)c4ccc(OCCC5CCCCC5)cc4)CC3)cc2)CC1 [Example 228]
[1]
  pIC50: 6.81
[2]
  pIC50: 7.71

## C=CCN1CCC(C(=O)NO)(S(=O)(=O)c2ccc(N3CCC(C(=O)c4ccc(NC)cc4)CC3)cc2)CC1 [Example 161]
[1]
  pIC50: 6.63
[2]
  pIC50: 9.52

## O=C(NO)C1(S(=O)(=O)c2ccc(N3CCC(N4CCc5ccccc54)CC3)cc2)CCOCC1 [Example 383]
[1]
  pIC50: 6.42
[2]
  pIC50: 7.43

## COCCN1CCC(C(=O)NO)(S(=O)(=O)c2ccc(N3CCC(c4nc5ccccc5o4)CC3)cc2)CC1 [Example 258]
[1]
  pIC50: 7.34
[2]
  pIC50: 7.85

## CNc1ccc(C(=O)C2CCN(c3ccc(S(=O)(=O)C4(C(=O)NO)CCN(S(C)(=O)=O)CC4)cc3)CC2)cc1 [Example 167]
[1]
  pIC50: 5.53
[2]
  pIC50: 8.33

## COCCN1CCC(C(=O)NO)(S(=O)(=O)c2ccc(N3CCC(C(=O)c4ccc(CCC(C)O)cc4)CC3)cc2)CC1 (centres unmarked) [Example 245]
[1]
  pIC50: 7.41
[2]
  pIC50: 8.96

## COc1ccc(C(=O)C2CCN(c3ccc(S(=O)(=O)C4(C(=O)NO)CCNCC4)cc3)CC2)cc1 [Example 140]
[1]
  pIC50: 6.10
[2]
  pIC50: 7.74

## COCCN1CCC(C(=O)NO)(S(=O)(=O)c2ccc(N3CCC(C(=O)c4ccc(CO)cc4)CC3)cc2)CC1 [Example 238]
[1]
  pIC50: 7.21
[2]
  pIC50: 8.74

## COCCN1CCC(C(=O)NO)(S(=O)(=O)c2ccc(N3CCC(C(=O)c4ccc(COCC5CC5)cc4)CC3)cc2)CC1 [Example 239]
[1]
  pIC50: 7.12
[2]
  pIC50: 9.22

## O=C(c1ccc(CC2CCCCC2)cc1)C1CCN(c2ccc(S(=O)(=O)C3(C(=O)NO)CCN(C4CC4)CC3)cc2)CC1 [Example 198]
[1]
  pIC50: 5.59
[2]
  pIC50: 7.92

## COCCN1CCC(C(=O)NO)(S(=O)(=O)c2ccc(N3CCC(c4ccc(C)cc4)CC3)cc2)CC1 [Example 269]
[2]
  pIC50: 8.85
[3]
  pIC50: < 5.00

## COc1ccc(C(=O)C2CCN(c3ccc(S(=O)(=O)C4(C(=O)NO)CCN(C(=O)c5ccco5)CC4)cc3)CC2)cc1 [Example 139]
[1]
  pIC50: 6.48
[2]
  pIC50: 8.74

## Cc1ccc(C2CCN(c3ccc(S(=O)(=O)C4(C(=O)NO)CCN(CC5CC5)CC4)cc3)CC2)cc1 [Example 273]
[1]
  pIC50: 7.87
[2]
  pIC50: 8.60

## CCCc1ccc(C(=O)C2CCN(c3ccc(S(=O)(=O)C4(C(=O)NO)CCN(S(C)(=O)=O)CC4)cc3)CC2)cc1 [Example 165]
[1]
  pIC50: 5.76
[2]
  pIC50: 7.07

## O=C(NO)C1(S(=O)(=O)c2ccc(N3CCC(c4ccc(Cl)cc4)CC3)cc2)CCN(C2CC2)CC1 [Example 261]
[1]
  pIC50: 9.00
[2]
  pIC50: 9.10

## COCCN1CCC(C(=O)NO)(S(=O)(=O)c2ccc(N3CCC(C(=O)c4ccc(COC)s4)CC3)cc2)CC1 [Example 252]
[1]
  pIC50: 7.84
[2]
  pIC50: 9.40
